Assay results published in ChEMBL document CHEMBL2034833, “Synthesis of chalcone-amidobenzothiazole conjugates as antimitotic and apoptotic inducing agents” (Bioorg Med Chem, 2012).
Active and inactive are the calls of the source. The calls are words filed in the database; no cut-off is given here.

Tests used:
ACHN = assay: Cytotoxicity against human ACHN cells after 48 hrs by MTT assay; assay type: functional, cell-based
MCF7 = assay: cells; conditions: Homo sapiens, MCF7, 48 h
Description: Cytotoxicity against human MCF7 cells after 48 hrs by MTT assay

A549 [1] = assay: cells; conditions: Homo sapiens, A549, 48 h
Description: Cytotoxicity against human A549 cells after 48 hrs by MTT assay

HT-29 = assay: Cytotoxicity against human HT-29 cells after 48 hrs by MTT assay; assay type: functional, cell-based; conditions: HT-29, 48 h
A-375 = assay: Cytotoxicity against human A375 cells after 48 hrs by MTT assay; assay type: functional, cell-based; conditions: A-375, 48 h
A549 [2] = assay: Induction of apoptosis in human A549 cells assessed as early apoptotic cells at 2 uM after 48 hrs by annexin-V FITC/propidium iodide staining based FACS analysis; assay type: functional
A549 [3] = assay: Cell cycle arrest in human A549 cells assessed as cell accumulation at subG1 phase at 2 uM after 48 hrs by propidium iodide staining based flow cytometry (reference value: […]); assay type: functional
A549 [4] = assay: Induction of apoptosis in human A549 cells assessed as viable cells at 2 uM after 48 hrs by annexin-V FITC/propidium iodide staining based FACS analysis; assay type: functional; conditions: A549, 48 h, read-out: Activity
A549 [5] = assay: Cell cycle arrest in human A549 cells assessed as cell accumulation at G0/G1 phase at 2 uM after 48 hrs by propidium iodide staining based flow cytometry (reference value: 70.15%); assay type: functional
A549 [6] = assay: Cell cycle arrest in human A549 cells assessed as cell accumulation at G2/M phase at 2 uM after 48 hrs by propidium iodide staining based flow cytometry (reference value: 23.75%); assay type: functional
A549 [7] = assay: Induction of apoptosis in human A549 cells assessed as necrotic cells at 2 uM after 48 hrs by annexin-V FITC/propidium iodide staining based FACS analysis; assay type: functional
A549 [8] = assay: Induction of apoptosis in human A549 cells assessed as late apoptotic cells at 2 uM after 48 hrs by annexin-V FITC/propidium iodide staining based FACS analysis; assay type: functional
[9] = Inhibition of tubulin polymerization at 3 uM after 1 hr by fluorescence assay
Tubulin (Homo sapiens) = Tubulin (Homo sapiens) (UniProt P68371+Q9H4B7+P0DPH7+P68366+Q13509+Q71U36+P04350+Q3ZCM7+P07437+P68363+Q9BQE3+Q6PEY2+Q13885+Q9BVA1+Q9BUF5); assay: Inhibition of tubulin polymerization in human A549 cells assessed as disrupted microtubule organization at 2 uM after 48 hrs by immunohistochemistry analysis; assay type: cell-based

Row | SMILES | IC50 (ACHN) | IC50 (MCF7) | IC50 (A549 [1]) | IC50 (HT-29; read-out: IC50) | IC50 (A-375) | Activity (A549 [2]) | Activity (A549 [3]) | viability at 2 µM (A549 [4]) | Activity (A549 [5]) | IC50 (HT-29) | Activity (A549 [6]) | Activity (A549 [7]) | Activity (A549 [8]) | inhibition [9] | inhibition (Tubulin (Homo sapiens))
1 | CCOc1ccc2nc(NC(=O)COc3cc(/C=C/C(=O)c4cc(OC)c(OC)c(OC)c4)ccc3OC)sc2c1 | 2.6 µM | 4.2 µM | 8.1 µM | 2.4 µM | 5.8 µM | – | – | – | – | – | – | – | – | – | –
2 | COc1ccc(/C=C\c2cc(OC)c(OC)c(OC)c2)cc1O [COMBRETASTATIN A4] | 0.17 µM | 0.18 µM | 0.11 µM | – | 0.21 µM | 0.3% | 8.44% | 54.4% | 13.98% | 0.93 µM | 63.75% | 22% | 23.3% | 69.7% | –
3 | COc1ccc(/C=C/C(=O)c2cc(OC)c(OC)c(OC)c2)cc1OCC(=O)Nc1nc2ccccc2s1 | – | – | – | – | – | – | – | – | – | – | – | – | – | – | Active
